The values that follow come from patent US10662203B2, “Pyrido[2,3-b]indole compounds for the treatment and prophylaxis of bacterial infection” (Hoffmann-La Roche Inc., priority 2017, dated 2020).

The structures appear in SMILES notation. ≈ marks a conversion by molar mass, not a printed value. Some results are limits rather than exact numbers.

The test system of data set [1] is A. baumannii (ATCC17978). The experiment in a line: 50% growth inhibitory concentration (IC50) determination assay. Format: cell-based. The conditions noted are these: Iso-Sensitest broth, 0.098 = detection limit. Summed up: (§1)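 Broth microdilution in Iso-Sensitest medium, ~5×10^5 CFU/mL inoculum, compound 50–0.097 μM final (two-fold series), 35±2° C; OD600 read every 20 min over 16 h.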

Data set [2] concerns K. pneumoniae (ATCC10031). The data set is described as above. Format: cell-based. The note with it: Klebsiella pneumoniae, Iso-Sensitest broth, 0.098 = detection limit. Summed up: as §1
In data set [3] the test system is S. aureus (ATCC29213). The data set is described as above. Type of data set: cell-based. The note with it: Staphylococcus aureus, Iso-Sensitest broth, 0.098 = detection limit. The gist of the method: as §1
The nature of data set [4]: Lyophilisation solubility assay (LYSA). Type of data set: physicochemical. The conditions noted are these: 0.05 M phosphate buffer, HPLC-UV; for solubility thermodynamic: phosphate buffer, pH 6.5, aqueous buffer, thermodynamic from solid. Here is the method: Lyophilisation Solubility Assay (LYSA):
The solubility of compounds of present invention was assessed by LYSA assay. Samples were prepared in duplicate from 10 mM DMSO stock solutions (20 μL) diluted in 30 μL pure DMSO. After evaporation of DMSO with a centrifugal vacuum evaporator, the residue was dissolved in 0.05 M phosphate buffer (150 μL, pH 6.5), which was stirred for one hour and shook for two hours. After one night, the solution was filtered using a microtiter filter plate. Then the filtrate and its 1/10 dilution were analyzed by HPLC-UV.

Setting [5] is: Acinetobacter baumannii, ATCC17978, A. baumannii ATCC17978.

Turning to `CNc1cc(F)c(F)c2c1[nH]c1ncc(-c3cnc4c(c3)c(=O)c(C(=O)O)cn4NC)c(N3CCC4C3CCCN4C)c12` (stereo not shown) [Example 1.247], the values for the IC50 in data set [1] (setting [5]), in data set [2] and in data set [3] were 0.344 µM, < 0.098 µM and 0.217 µM, respectively. The same compound had a thermodynamic solubility in data set [4] of 516 µg/mL (≈ 877 µM).
As for `CNc1cc(F)c(F)c2c1[nH]c1ncc(-c3cnc4c(c3)c(=O)c(C(=O)O)cn4C)c(N3CCC[C@@H]3CN(C)C)c12` [Example 1.13], the thermodynamic solubility in data set [4] turned out to be 389 µg/mL (≈ 693 µM).
For the compound `CNc1cc(F)cc2c1[nH]c1ncc(-c3cnc4c(c3)c(=O)c(C(=O)O)cn4C)c(N3C[C@H](OC)[C@@H](N(C)C)C3)c12` [Example 1.171], the IC50 in data set [1] (setting [5]) is 0.445 µM; in data set [2], < 0.098 µM; in data set [3] it was < 0.098 µM. Further, the thermodynamic solubility in data set [4] stood at 46 µg/mL (≈ 82.2 µM).
As for `CNc1cc(F)c(F)c2c1[nH]c1ncc(-c3cnc4c(c3)c(=O)c(C(=O)O)cn4C(C)CO)c(N3CC[C@H]4CN(C)CC43)c12` (stereo partly shown) [Example 1.206], the figures for the IC50 in data set [1] (setting [5]), in data set [2] and in data set [3] were 0.277 µM, < 0.098 µM and < 0.098 µM, respectively. This compound came in with a thermodynamic solubility in data set [4] of 273 µg/mL (≈ 452 µM).
Regarding `CNc1cc(F)c(F)c2c1[nH]c1ncc(-c3cnc4c(c3)c(=O)c(C(=O)O)cn4NC)c(N3CC[C@@H]4C3CCN4C)c12` (stereo partly shown) [Example 1.249], the IC50 in data set [1] (setting [5]) is 0.272 µM; in data set [2] it was < 0.098 µM; in data set [3], < 0.098 µM. This compound also came in with a thermodynamic solubility in data set [4] of 487 µg/mL (≈ 848 µM).
Consider `CNc1cc(F)c(F)c2c1[nH]c1ncc(-c3cnc4c(c3)c(=O)c(C(=O)O)cn4COC)c(N3CC[C@H]4CN(C)C[C@H]43)c12` (relative stereo) [Example 5.06, 6-[4-[cis-5-methyl-2,3,3a,4,6,6a-hexahydropyrrolo[2,3-c]pyrrol-1-yl]-5,6-difluoro-8-(methylamino)-9H-pyrido[2,3-b]indol-3-yl]-1-(methoxymethyl)-4-oxo-1,8-naphthyridine-3-carboxylic acid], for which the IC50 in data set [1] (setting [5]) is 0.295 µM; in data set [2], < 0.098 µM; in data set [3] it was < 0.098 µM. The compound further came in with a solubility (thermodynamic) in data set [4] of 366 µg/mL (≈ 621 µM).
As to `CNc1cc(F)c(F)c2c1[nH]c1ncc(-c3cnc4c(c3)c(=O)c(C(=O)O)cn4C)c(N3CCC4(CCN4C)C3)c12` (stereo not shown) [Example 1.237], the results for the IC50 in data set [1] (setting [5]), in data set [2] and in data set [3] were 0.194 µM, < 0.098 µM and < 0.098 µM, respectively. This compound also yielded a solubility (thermodynamic) in data set [4] of 145 µg/mL (≈ 259 µM).
Take `CCN1CC2[C@@H](CCN2c2c(-c3cnc4c(c3)c(=O)c(C(=O)O)cn4C)cnc3[nH]c4c(NC)cc(F)c(F)c4c23)C1` (stereo partly shown) [Example 1.279]: the half-inhibitory concentration (IC50) was 0.215 µM in data set [1] (setting [5]), < 0.098 µM in data set [2] and < 0.098 µM in data set [3]. Also, the thermodynamic solubility in data set [4] was 151 µg/mL (≈ 263 µM).
Compound `CNc1cc(F)c(F)c2c1[nH]c1ncc(-c3cnc4c(c3)c(=O)c(C(=O)O)cn4NC)c(N3CC4OCCN(C)C4C3)c12` (stereo not shown) [Example 1.236] showed a thermodynamic solubility in data set [4] of 55 µg/mL (≈ 93.1 µM).
Consider `CNc1cc(F)c(F)c2c1[nH]c1ncc(-c3cnc4c(c3)c(=O)c(C(=O)O)cn4C)c(N3CCCC(N(C)CCO)C3)c12` (stereo not shown) [Example 1.201], for which the IC50 in data set [1] (setting [5]) was 0.852 µM; in data set [2], < 0.098 µM; in data set [3], 0.189 µM. Moreover, in data set [4], the thermodynamic solubility amounted to 124 µg/mL (≈ 210 µM).
In turn, `CNc1cc(F)c(F)c2c1[nH]c1ncc(-c3cnc4c(c3)c(=O)c(C(=O)O)cn4C)c(N3CCN4CCC[C@@H]4C3)c12` [Example 1.220] gave an IC50 in data set [1] (setting [5]) of 0.141 µM. Further, the thermodynamic solubility in data set [4] stood at 79 µg/mL (≈ 141 µM).
For `CNc1cc(F)c(F)c2c1[nH]c1ncc(-c3cnc4c(c3)c(=O)c(C(=O)O)cn4C)c(N3CCN4CCC[C@H]4C3)c12` [Example 1.219], in that order: 0.267 µM and 73 µg/mL (≈ 130 µM).
The compound `CNc1cc(F)c(F)c2c1[nH]c1ncc(-c3cnc4c(c3)c(=O)c(C(=O)O)cn4N)c(N3CC[C@H]4CN(C)CC43)c12` (stereo partly shown) [Example 5.02] had a thermodynamic solubility in data set [4] of 174 µg/mL (≈ 310 µM).
The same measure, in the same setting: to `CNc1cc(F)c(F)c2c1[nH]c1ncc(-c3cnc4c(c3)c(=O)c(C(=O)O)cn4NC)c(N3CCC4CN(C)CCC43)c12` (stereo not shown) [Example 1.244] belongs 254 µg/mL (≈ 432 µM).
`CNc1cc(F)c(F)c2c1[nH]c1ncc(-c3cnc4c(c3)c(=O)c(C(=O)O)cn4C)c(N3C[C@H](OC)[C@@H](N(C)C)C3)c12` [Example 1.158] displayed an IC50 in data set [1] (setting [5]) of 0.23 µM. The Lysa in data set [4] (pH 6.5) was determined as 49 µg/mL.
For `CNc1cc(F)cc2c1[nH]c1ncc(-c3cnc4c(c3)c(=O)c(C(=O)O)cn4N)c(N3CC[C@H]4CN(C)CC43)c12` (stereo partly shown) [Example 5.05], in data set [4], the thermodynamic solubility was determined as 250 µg/mL (≈ 461 µM).
`CNc1cc(F)c(F)c2c1[nH]c1ncc(-c3cnc4c(c3)c(=O)c(C(=O)O)cn4C)c(N3CC[C@@H]4CN(C)C[C@@H]43)c12` [Example 3.03B]: the solubility (thermodynamic) in data set [4] worked out at 180 µg/mL (≈ 322 µM).
For `CNc1cc(F)c(F)c2c1[nH]c1ncc(-c3cnc4c(c3)c(=O)c(C(=O)O)cn4C)c(N3C[C@H](F)[C@@H](N(C)C)C3)c12` [Example 1.168], the IC50 was 0.287 µM in data set [1] (A. baumannii ATCC17978), < 0.098 µM in data set [2] and < 0.098 µM in data set [3].
`CNc1cc(F)c(F)c2c1[nH]c1ncc(-c3cnc4c(c3)c(=O)c(C(=O)O)cn4C)c(N3CCC(NC4CC4)C3)c12` (stereo not shown) [Example 1.115]: the values for the IC50 in data set [1] (setting [5]), in data set [2] and in data set [3] were 0.049 µM, < 0.098 µM and < 0.098 µM, respectively.
Turning to `CNc1cc(F)c(F)c2c1[nH]c1ncc(-c3cnc4c(c3)c(=O)c(C(=O)O)cn4C)c(N3CCNC(C(F)(F)F)C3)c12` (stereo not shown) [Example 1.09], the figures for the IC50 in data set [1] (setting [5]), in data set [2] and in data set [3] were 0.818 µM, 0.104 µM and < 0.098 µM, respectively.
On to `CNc1cc(F)c(F)c2c1[nH]c1ncc(-c3cnc4c(c3)c(=O)c(C(=O)O)cn4C3CCN(C)C3)c(N(C)C)c12` (stereo not shown) [Example 1.130], for which the IC50 in data set [1] (setting [5]) was 0.132 µM; in data set [2], < 0.098 µM; in data set [3] it was < 0.098 µM.
`CNc1cc(F)cc2c1[nH]c1ncc(-c3cnc4c(c3)c(=O)c(C(=O)O)cn4C)c(N3CCC(F)(CN(C)C)C3)c12` (stereo not shown) [Example 1.109]: the IC50 in data set [1] (setting [5]) is 0.066 µM; in data set [2], < 0.098 µM; in data set [3], < 0.098 µM.
Take `CNc1cc(F)c(F)c2c1[nH]c1ncc(-c3cnc4c(c3)c(=O)c(C(=O)O)cn4C)c(N3CCCC3)c12` [Example 1.208]: the figures for the IC50 in data set [1] (setting [5]), in data set [2] and in data set [3] were 0.78 µM, 0.16 µM and < 0.098 µM, respectively.
For `CNc1cc(F)cc2c1[nH]c1ncc(-c3cnc4c(c3)c(=O)c(C(=O)O)cn4C)c(N3CCO[C@H](C)C3)c12` [Example 1.49], in that order: 0.112 µM, < 0.098 µM and < 0.098 µM.
For `CNc1c(F)c(F)cc2c1[nH]c1ncc(-c3cnc4c(c3)c(=O)c(C(=O)O)cn4C)c(N3CC[C@H]4CN(C)CC43)c12` (stereo partly shown) [Example 1.103], in data set [1] (setting [5]), the IC50 amounted to 0.13 µM. In data set [4], this compound had a solubility (thermodynamic) of 11 µg/mL (≈ 19.7 µM).
`CNc1cc(F)cc2c1[nH]c1ncc(-c3cnc4c(c3)c(=O)c(C(=O)O)cn4C)c(N3CCCN(C)CC3)c12` [Example 1.185]: the IC50 in data set [1] (setting [5]) was 0.524 µM; in data set [2], < 0.098 µM; in data set [3] it was 0.321 µM.
For `CNc1cc(F)c(F)c2c1[nH]c1ncc(-c3cnc4c(c3)c(=O)c(C(=O)O)cn4C)c(N3CCO[C@@H](CN(C)C)C3)c12` [Example 4.02B, (S)-6-(4-(2-((dimethylamino)methyl)morpholino)-5,6-difluoro-8-(methylamino)-9H-pyrido[2,3-b]indol-3-yl)-1-methyl-4-oxo-1,4-dihydro-1,8-naphthyridine-3-carboxylic acid], in that order: 0.408 µM, < 0.098 µM and 0.207 µM.
The matching figures for `CNc1cc(F)cc2c1[nH]c1ncc(-c3cnc4c(c3)c(=O)c(C(=O)O)cn4C)c(N3CCC(CN(C)C4CC4)C3)c12` (stereo not shown) [Example 1.99]: 0.771 µM, < 0.098 µM and < 0.098 µM.
For `CNc1cc(F)c(F)c2c1[nH]c1ncc(-c3cnc4c(c3)c(=O)c(C(=O)O)cn4C3CCOC3)c(N(C)C)c12` (stereo not shown) [Example 1.21], in that order: 0.469 µM, 0.154 µM and < 0.098 µM.
Regarding `CCn1cc(C(=O)O)c(=O)c2cc(-c3cnc4[nH]c5c(NC)cc(F)c(F)c5c4c3N(C)CCOC)cnc21` [Example 1.06], the 50% inhibitory concentration (IC50) in data set [1] (setting [5]) is 0.849 µM; in data set [2] it was 0.17 µM; in data set [3] it was < 0.098 µM.
The matching figures for `CNc1cc(F)cc2c1[nH]c1ncc(-c3cnc4c(c3)c(=O)c(C(=O)O)cn4C)c(N3CCOCC3)c12` [Example 1.48]: 0.11 µM, < 0.098 µM and < 0.098 µM.
For `CNc1cc(F)c(F)c2c1[nH]c1ncc(-c3cnc4c(c3)c(=O)c(C(=O)O)cn4C)c(N3CCC(CNC4CC4)C3)c12` (stereo not shown) [Example 1.137], in that order: 0.151 µM, < 0.098 µM and < 0.098 µM.
The matching figures for `CNc1cc(F)c(Cl)c2c1[nH]c1ncc(-c3cnc4c(c3)c(=O)c(C(=O)O)cn4C)c(N3CC[C@H]4CN(C)CC43)c12` (stereo partly shown) [Example 1.270]: 0.048 µM, < 0.098 µM and < 0.098 µM.

For orientation: IC50 means the concentration needed to halve the response being measured. High values mean weaker potency, low ones greater potency. One may read the thermodynamic solubility as solubility found after equilibrating the solid with the medium.
